The text below walks through data of patent US8138167B2, “Methods for treating lung cancers” (Oncotherapy Science, Inc., priority 2006, dated 2012).

Assay [1] deals with advanced non-small-cell lung cancer. The following applies: Japanese patients with advanced NSCLC treated since approval; cited from earlier work.
The test system of assay [2] is lung cancer. The following applies: cited from earlier work.
Assay [3] concerns PC-9 cells. Conditions: gefitinib-sensitive, amphiregulin-nonexpressing NSCLC line PC-9; upon autocrine secretion of amphiregulin; cited from earlier work.
Assay [4] has as its system progressive non-small-cell lung cancer. Briefly: gefitinib therapy (250 mg/day) of 50 patients with progressive non-small-cell lung cancer, overall evaluation of tumor response.
Setting [5] is: 50 progressive NSCLC patients, gefitinib 250 mg/day, evaluation after four months.
Setting [6] is: of 50 patients after gefitinib therapy.

Read-outs that look alike come from different tables or passages of the source.

Consider `COc1cc2ncnc(Nc3ccc(F)c(Cl)c3)c2cc1OCCCN1CCOCC1` [gefitinib, N-(3-chloro-4-fluorophenyl)-7-methoxy-6-(3-morpholinopropoxy)quinazolin-4-amine], for which the “patients showing no improvement in symptoms” value in assay [1] is on record as 60%. Further, the median survival time in assay [2] (adenocarcinoma patients, gefitinib arm (placebo […])) is recorded as 6.3 months. In addition, the median survival time in assay [2] (all parent populations, gefitinib arm (placebo 5.1)) is listed as 5.6 months. In addition, the “antitumor activity of gefitinib on PC-9 cells” value in assay [3] is “dramatically reduced”. In assay [4] (setting [5]), the “disease control rate (CR+PR+SD/CR+PR+SD+PD)” value is 40.0% and the “tumor response rate (CR+PR/CR+PR+SD+PD)” value stood at 16.0%. In assay [4] (setting [6]), the “patients classified as CR” value is recorded as “none”, the “patients classified as PD” value was 30 patients, the “patients classified as PR” value is “eight” and the “patients classified as SD” value came out at 12 patients.
